Assay results as given in PubChem BioAssay (NCI).
Several values for one entry are separate records, joined by “and”; a condition that tells them apart may be missing. Identical values can stand only once.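 Dose response: 5 concentrations. Exposure: 48 h. Format: 96-well plates. Endpoint: linear interpolation; highest concentration if not reached. The concentration for 50% growth inhibition is given as GI50. TGI marks complete inhibition of growth.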

Columns and labels:
Assay in all cases: NCI tumour cell line growth inhibition, 48 h
HOP-18 NSCLC = system: HOP-18 NSCLC
IGROV1 ovarian = system: IGROV1 ovarian
P388/ADR leukemia = system: P388/ADR leukemia
SF-295 CNS = system: SF-295 CNS
BT-549 breast = system: BT-549 breast
XF 498 CNS = system: XF 498 CNS
MDA-N = system: MDA-N
HL-60(TB) leukemia = system: HL-60(TB) leukemia
OVCAR-5 ovarian = system: OVCAR-5 ovarian
T-47D breast = system: T-47D breast
CCRF-CEM leukemia = system: CCRF-CEM leukemia
TK-10 renal = system: TK-10 renal
KM20L2 colon = system: KM20L2 colon
NCI-H460 lung = system: NCI-H460 lung
NCI/ADR-RES ovarian = system: NCI/ADR-RES ovarian
A549 NSCLC = system: A549 NSCLC
SF-539 CNS = system: SF-539 CNS
MDA-MB-231 breast = system: MDA-MB-231 breast
SNB-78 CNS = system: SNB-78 CNS
COLO 205 colon = system: COLO 205 colon
HCT-116 colon = system: HCT-116 colon
UACC-257 melanoma = system: UACC-257 melanoma
HCT-15 colon = system: HCT-15 colon
SNB-19 CNS = system: SNB-19 CNS
SK-MEL-28 melanoma = system: SK-MEL-28 melanoma
M14 melanoma = system: M14 melanoma
M19-MEL melanoma = system: M19-MEL melanoma
A498 renal = system: A498 renal
SF-268 CNS = system: SF-268 CNS
HS 578T breast = system: HS 578T breast
NCI-H226 lung = system: NCI-H226 lung
NCI-H522 lung = system: NCI-H522 lung
K-562 leukemia = system: K-562 leukemia
SN12K1 renal = system: SN12K1 renal
DMS 273 small cell lung = system: DMS 273 small cell lung
786-0 renal = system: 786-0 renal
NCI-H23 lung = system: NCI-H23 lung
LOX IMVI melanoma = system: LOX IMVI melanoma
HOP-62 NSCLC = system: HOP-62 NSCLC
OVCAR-4 ovarian = system: OVCAR-4 ovarian
EKVX NSCLC = system: EKVX NSCLC
SK-OV-3 ovarian = system: SK-OV-3 ovarian
U251 CNS = system: U251 CNS
SW-620 colon = system: SW-620 colon
HCC-2998 colon = system: HCC-2998 colon
DMS 114 small cell lung = system: DMS 114 small cell lung
RXF 393 renal = system: RXF 393 renal
UACC-62 melanoma = system: UACC-62 melanoma
MALME-3M melanoma = system: MALME-3M melanoma
SK-MEL-2 melanoma = system: SK-MEL-2 melanoma
P388 leukemia = system: P388 leukemia
RPMI-8226 leukemia = system: RPMI-8226 leukemia
UO-31 renal = system: UO-31 renal
DLD-1 colon = system: DLD-1 colon
ACHN renal = system: ACHN renal
CAKI-1 renal = system: CAKI-1 renal
KM12 colon = system: KM12 colon
PC-3 prostate = system: PC-3 prostate
HT29 colon = system: HT29 colon
SNB-75 CNS = system: SNB-75 CNS
MDA-MB-435 = system: MDA-MB-435
MOLT-4 leukemia = system: MOLT-4 leukemia
DU-145 prostate = system: DU-145 prostate
SK-MEL-5 melanoma = system: SK-MEL-5 melanoma
OVCAR-8 ovarian = system: OVCAR-8 ovarian
SN12C renal = system: SN12C renal

## Nc1ncnc2c1ncn2C1OC(CO)C(O)C1O (stereo unspecified)
HOP-18 NSCLC
  TGI: > 399 µM
IGROV1 ovarian
  GI50: > 450 µM
  TGI: > 450 µM
P388/ADR leukemia
  TGI: 144 µM
SF-295 CNS
  GI50: > 100 µM and 215 µM and 32.6 µM
  TGI: > 450 µM
BT-549 breast
  GI50: 7.69 µM
  TGI: 59 µM
XF 498 CNS
  TGI: > 450 µM
MDA-N
  TGI: > 100 µM
HL-60(TB) leukemia
  GI50: 22.9 µM and 105 µM and 13.8 µM
  TGI: > 100 µM and 328 µM and 56 µM
OVCAR-5 ovarian
  GI50: > 100 µM and 257 µM and 34.6 µM
  TGI: > 450 µM
T-47D breast
  GI50: 0.738 µM
  TGI: > 100 µM and 13.5 µM
CCRF-CEM leukemia
  GI50: > 100 µM
  TGI: > 284 µM
TK-10 renal
  GI50: 41.1 µM
  TGI: > 100 µM
KM20L2 colon
  TGI: > 450 µM
NCI-H460 lung
  GI50: 4.23 µM
  TGI: 181 µM and 32.2 µM
NCI/ADR-RES ovarian
  GI50: 5.06 µM
A549 NSCLC
  GI50: 22.3 µM
  TGI: > 388 µM
SF-539 CNS
  GI50: 31.6 µM
  TGI: > 450 µM
MDA-MB-231 breast
  GI50: 5.91 µM
  TGI: > 100 µM and 24.6 µM
SNB-78 CNS
  TGI: > 450 µM
COLO 205 colon
  GI50: > 100 µM and > 450 µM and 60.3 µM
  TGI: > 450 µM
HCT-116 colon
  GI50: 7.58 µM
  TGI: > 450 µM
UACC-257 melanoma
  GI50: > 450 µM
  TGI: > 450 µM
HCT-15 colon
  TGI: > 100 µM and > 450 µM and 62 µM
SNB-19 CNS
  TGI: > 450 µM
SK-MEL-28 melanoma
  GI50: > 100 µM and 313 µM and 62.3 µM
  TGI: > 450 µM
M14 melanoma
  GI50: 32.2 µM
  TGI: > 100 µM
M19-MEL melanoma
  TGI: > 450 µM
A498 renal
  GI50: 93.2 µM and 43.5 µM and 55.1 µM
  TGI: > 100 µM
SF-268 CNS
  GI50: 38.7 µM
  TGI: > 450 µM
HS 578T breast
  GI50: 16.2 µM
  TGI: 54.4 µM
NCI-H226 lung
  GI50: > 100 µM and 213 µM and 25.5 µM
  TGI: > 373 µM
NCI-H522 lung
  TGI: > 295 µM
K-562 leukemia
  TGI: > 450 µM
SN12K1 renal
  TGI: > 450 µM
DMS 273 small cell lung
  TGI: > 450 µM
786-0 renal
  GI50: 9.22 µM
  TGI: > 100 µM
NCI-H23 lung
  TGI: > 100 µM and > 450 µM and 77.3 µM
LOX IMVI melanoma
  GI50: 5.73 µM
  TGI: > 450 µM
HOP-62 NSCLC
  GI50: 11.7 µM
  TGI: > 100 µM and 184 µM and 47.9 µM
OVCAR-4 ovarian
  TGI: > 450 µM
EKVX NSCLC
  GI50: > 100 µM and 48.3 µM and 17 µM
  TGI: > 100 µM and 152 µM and > 84.3 µM
SK-OV-3 ovarian
  GI50: > 100 µM and 296 µM and 34 µM
  TGI: > 450 µM
U251 CNS
  GI50: > 100 µM and 273 µM and 30.6 µM
  TGI: > 450 µM
SW-620 colon
  GI50: 19.3 µM
  TGI: > 450 µM
HCC-2998 colon
  GI50: 1.61 µM
DMS 114 small cell lung
  TGI: > 437 µM
RXF 393 renal
  GI50: 22.5 µM
  TGI: > 100 µM and 290 µM and 64.1 µM
UACC-62 melanoma
  GI50: > 100 µM and 247 µM and 27.2 µM
  TGI: > 450 µM
MALME-3M melanoma
  GI50: 51.3 µM
  TGI: > 422 µM
SK-MEL-2 melanoma
  TGI: > 100 µM and > 450 µM and 75.7 µM
P388 leukemia
  TGI: 111 µM
RPMI-8226 leukemia
  TGI: > 100 µM and > 450 µM and 60.8 µM
UO-31 renal
  TGI: > 450 µM
DLD-1 colon
  TGI: > 450 µM
ACHN renal
  GI50: 30.4 µM
  TGI: > 100 µM and 96.8 µM
CAKI-1 renal
  TGI: > 100 µM and > 450 µM and 74.9 µM
KM12 colon
  TGI: > 450 µM
PC-3 prostate
  GI50: 1.44 µM
  TGI: > 100 µM and 12.8 µM
HT29 colon
  TGI: > 450 µM
SNB-75 CNS
  GI50: 11.6 µM
  TGI: > 100 µM and 331 µM and 38.2 µM
MDA-MB-435
  GI50: 38.8 µM
  TGI: > 100 µM
MOLT-4 leukemia
  GI50: > 100 µM and 201 µM
  TGI: > 450 µM
DU-145 prostate
  GI50: 3.8 µM
  TGI: 82.4 µM and 31.4 µM
SK-MEL-5 melanoma
  GI50: > 100 µM and > 450 µM and 46.2 µM
  TGI: > 450 µM
OVCAR-8 ovarian
  GI50: 32.9 µM and 79.3 µM and 12.6 µM
  TGI: > 401 µM
SN12C renal
  GI50: 16 µM
  TGI: > 100 µM and 393 µM and 97.6 µM
